Molecules are shown by their SMILES.

Experimental findings from BindingDB's records for doi:10.1074/jbc.M113.480517 (University of Iowa, 2013) are described below.

Common to all, as to assay: DNA Methylation Assay
Holding throughout (conditions): pH 7.5

The target of test [1] is T1, DNA (cytosine-5)-methyltransferase 1 [351-1600] (Homo sapiens, UniProt P26358).
T1 construct: 351-1600
The procedure:
(§1) Assays (0.1 ml) were conducted in 96-well black half-area plates in either a Wallac VICTOR2 or Biotek Synergy Neo plate reader at 37 °C in 10 mM Tris, pH 7.5, 100 mM potassium glutamate, 1 mM MgCl2, 1 mM DTT, 0.1 mg/ml BSA, and 5% glycerol. […] Data were fitted using Prism (GraphPad Software, Inc).

The target in test [2] is T2, DNA (cytosine-5)-methyltransferase 3A [590-912] (Homo sapiens, UniProt Q9Y6K1).
T2 construct: 590-912
T2 sequence (Q9Y6K1 590-912): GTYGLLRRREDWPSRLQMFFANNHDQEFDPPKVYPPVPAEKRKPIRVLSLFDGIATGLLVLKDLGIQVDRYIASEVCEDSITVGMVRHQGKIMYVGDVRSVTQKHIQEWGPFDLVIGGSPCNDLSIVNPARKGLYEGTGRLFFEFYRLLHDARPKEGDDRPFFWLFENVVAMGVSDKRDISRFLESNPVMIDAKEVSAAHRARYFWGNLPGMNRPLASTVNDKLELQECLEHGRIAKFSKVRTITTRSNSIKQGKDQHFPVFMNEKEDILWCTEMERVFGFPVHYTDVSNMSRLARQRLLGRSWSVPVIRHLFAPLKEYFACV
The procedure:
as §1

Test [3] has as its target Orphan methyltransferase M.SssI (Spiroplasma monobiae (strain ATCC 33825 / MQ-1), UniProt P15840). The procedure: as §1

Orphan methyltransferase M.SssI, sequence (P15840 whole entry): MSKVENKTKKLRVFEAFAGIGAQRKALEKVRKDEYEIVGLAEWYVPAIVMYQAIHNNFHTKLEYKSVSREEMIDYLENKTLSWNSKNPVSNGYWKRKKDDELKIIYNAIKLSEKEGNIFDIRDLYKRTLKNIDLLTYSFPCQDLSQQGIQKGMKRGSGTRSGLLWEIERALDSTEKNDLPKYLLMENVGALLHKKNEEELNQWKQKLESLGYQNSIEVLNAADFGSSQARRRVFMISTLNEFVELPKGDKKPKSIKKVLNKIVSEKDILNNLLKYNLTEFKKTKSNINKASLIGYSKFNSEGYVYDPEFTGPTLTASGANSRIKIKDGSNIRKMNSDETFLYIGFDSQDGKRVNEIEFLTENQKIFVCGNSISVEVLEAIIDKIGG
T1 sequence (P26358 351-1600): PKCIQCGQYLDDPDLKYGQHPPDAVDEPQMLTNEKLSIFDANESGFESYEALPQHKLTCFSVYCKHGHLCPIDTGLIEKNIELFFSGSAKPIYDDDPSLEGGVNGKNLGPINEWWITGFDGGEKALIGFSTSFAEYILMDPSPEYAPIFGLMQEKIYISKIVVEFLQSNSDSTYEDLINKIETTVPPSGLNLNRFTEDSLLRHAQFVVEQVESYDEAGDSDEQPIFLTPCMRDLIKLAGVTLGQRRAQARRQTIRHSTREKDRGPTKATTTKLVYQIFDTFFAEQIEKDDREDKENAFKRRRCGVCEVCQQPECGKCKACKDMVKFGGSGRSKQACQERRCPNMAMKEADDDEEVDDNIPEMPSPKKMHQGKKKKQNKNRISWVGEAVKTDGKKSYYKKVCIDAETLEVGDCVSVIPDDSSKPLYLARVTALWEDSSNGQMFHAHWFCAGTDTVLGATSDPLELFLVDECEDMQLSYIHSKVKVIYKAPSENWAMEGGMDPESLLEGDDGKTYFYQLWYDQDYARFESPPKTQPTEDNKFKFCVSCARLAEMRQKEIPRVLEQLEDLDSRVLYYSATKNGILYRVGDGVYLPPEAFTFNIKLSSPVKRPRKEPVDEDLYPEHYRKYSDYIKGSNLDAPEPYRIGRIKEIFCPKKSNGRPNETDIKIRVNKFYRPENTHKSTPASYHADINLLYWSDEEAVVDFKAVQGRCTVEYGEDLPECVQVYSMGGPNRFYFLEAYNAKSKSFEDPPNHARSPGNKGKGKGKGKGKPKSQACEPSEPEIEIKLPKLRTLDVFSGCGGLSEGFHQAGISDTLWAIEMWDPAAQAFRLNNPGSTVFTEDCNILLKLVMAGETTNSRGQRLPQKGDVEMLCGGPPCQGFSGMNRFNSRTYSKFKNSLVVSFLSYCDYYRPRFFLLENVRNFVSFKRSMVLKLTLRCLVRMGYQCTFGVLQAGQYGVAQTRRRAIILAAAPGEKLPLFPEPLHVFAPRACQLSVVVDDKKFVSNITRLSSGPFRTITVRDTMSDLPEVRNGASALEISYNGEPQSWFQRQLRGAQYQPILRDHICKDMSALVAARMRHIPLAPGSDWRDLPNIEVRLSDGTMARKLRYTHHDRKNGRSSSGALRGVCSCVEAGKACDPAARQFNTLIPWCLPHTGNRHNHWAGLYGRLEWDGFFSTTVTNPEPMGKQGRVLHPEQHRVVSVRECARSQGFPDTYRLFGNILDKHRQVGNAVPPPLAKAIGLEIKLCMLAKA

In general, IC50 refers to the midpoint of a concentration-inhibition curve. With `CC(=O)NCCc1ccc(O)c(-c2c(O)c(O)c3c(c2O)C(=O)c2c(cc(O)c(C(=O)O)c2C(=O)O)C3=O)c1`, the 50% inhibitory concentration (IC50) in test [1] is 19.1 µM; in test [2] it was 50.5 µM; in test [3] it was 53.6 µM.
